Measured values: patent US5795892A, “4-aminopyridazines, method of preparing them and drugs containing these compounds” (Boehringer Manneim GmbH, priority 1994, dated 1998)

How the values were obtained:
thrombin = target: T1, thrombin (Equus caballus, UniProt F7BFJ1); test: Thrombin time; assay type: biochemical, horse thrombin, human plasma; details: 37° C.; for TT5 (thrombin time as a difference to the control): 5 μM active substance in human plasma; for TT50 (thrombin time as a difference to the control): 50 μM active substance in human plasma
T1 construct: mature thrombin (light and heavy chain) cut from prothrombin; clotting of human fibrinogen
Procedure: A conventional test in clinical coagulation diagnostics is the thrombin time. This parameter measures the action of thrombin on fibrinogen and the formation of clots. Inhibitors of thrombin result in an extended thrombin time.
In order to obtain plasma 9 parts of fresh blood from healthy donors was mixed with one part of sodium citrate solution (0.11 mol/l) and it was centrifuged for 10 minutes at room temperature at ca. 3000 r.p.m. The plasma was removed by pipette and can be stored at room temperature for ca. 8 hours.
200 μl citrate plasma was incubated for 2 minutes at 37° C. in a ball coagulometer (KC10 from the Amelung Company). 10 μl dimethylsulfoxide (DMSO) or a solution of the active substance in DMSO was added to 190 μl pre-heated thrombin reagent (Boehringer Mannheim GmbH; contains ca. 3 U/ml horse thrombin and 0.0125M Ca^++). On addition of this 200 μl solution to the plasma a stopwatch was started and the time at which coagulation starts was determined.
The measured thrombin times in seconds are given in the following table as a difference to the control. The concentrations of the active substances in human plasma were 50 μM (TT50) and 5 μM (TT5).

human α thrombin = target: T2, human α thrombin (Homo sapiens, UniProt P00734); test: Thrombin inhibition; assay type: biochemical; details: pH=7.5, 25° C., substrate H-(D)-Phe-Pro-Arg-pNA
T2 construct: human α thrombin; purchased Sigma
Procedure: The kinetic measurements were carried out in 0.1M phosphate buffer that contained 0.2M sodium chloride and 0.5% polyethylene glycol 6000 at a pH=7.5 and 25° C. with the substrate H-(D)-Phe-Pro-Arg-pNA (Kabi) and human α thrombin (Sigma, specific activity=2150 NIH-units/mg) in polystyrene semi-microcuvettes in a total volume of 1 ml.
In a preliminary test each active substance was determined as to whether it inhibits thrombin rapidly or slowly. For this the reaction was firstly started by adding 0.03 NIH units thrombin to a 100 μM solution of the substrate and the active substance. In a second experiment, substrate was added to a solution of thrombin and the active substance which had been incubated for 5 minutes. The increase in the concentration of p-nitroaniline with time was monitored spectroscopically (UV-VIS spectrophotometer Lambda-2 from the Perkin-Elmer Company) at 405 nm for 12 min.
Since the measured curves obtained in both experiments were linear and parallel, the active substances of the following table are rapid thrombin inhibitors.
The inhibition constants Ki were then determined as follows. The substrate was used at concentrations of 100 μM, 50 μM, 30 μM, 20 μM and at each substrate concentration one measurement was carried out without inhibitor and three measurements were carried out in the presence of various concentrations of the inhibitors listed in the following table. The reactions were started by the addition of thrombin. The increase in absorbance at 405 nm due to the formation of p-nitroaniline was monitored over a time period of 12 minutes. Measurement points (time versus absorbance) were transferred to a PC at intervals of 20 seconds. The rates Vo (change in absorbance per second; measurements without inhibitor) and Vi (measurements with inhibitor) are determined by linear regression. Only that part of each measurement was used in which the substrate concentration had decreased by less than 15%. Km ' and Vmax were determined from a measurement series (constant inhibitor concentration, variable substrate concentrations) by a non-linear fit to the equation [formula] Finally Ki was calculated from the entire series of measurements by non-linear fitting to the equation [formula]
The inhibition constants Ki of the active substances are stated in the following table in units of μM.

Cc1cc(NS(=O)(=O)c2ccccc2)cc(OCCNc2ccnnc2)c1 [Example 1, N-{3-methyl-5-[2-(pyridazin-4-ylamino)-ethoxy]-phenyl}-benzenesulfonamide]
TT5 (thrombin time as a difference to the control) (thrombin): 23 s
TT50 (thrombin time as a difference to the control) (thrombin): 126 s
Ki (human α thrombin): 70 nM

Cc1cc(OCCNc2ccnnc2)cc(OS(=O)(=O)c2cccnc2)c1 [Example 4]
TT5 (thrombin time as a difference to the control) (thrombin): 38 s
TT50 (thrombin time as a difference to the control) (thrombin): 194 s
Ki (human α thrombin): 60 nM

Cc1cc(OCCNc2ccnnc2)cc(OS(=O)(=O)c2cccc(C#N)c2)c1 [Example 9, 3-Cyanobenzenesulfonic acid-3-methyl-5-[2-(pyridazin-4-ylamino)-ethoxy]-phenyl ester]
TT5 (thrombin time as a difference to the control) (thrombin): 31 s
TT50 (thrombin time as a difference to the control) (thrombin): 128 s
Ki (human α thrombin): 140 nM

Cc1cc(OCCNc2ccnnc2)cc(OS(=O)(=O)c2cccc(C(N)=S)c2)c1 [Example 10, 3-Thiocarbamoyl-benzenesulfonic acid-3-methyl-5-[2-(pyridazin-4-ylamino)-ethoxy]-phenyl ester]
TT5 (thrombin time as a difference to the control) (thrombin): 13 s
TT50 (thrombin time as a difference to the control) (thrombin): 71 s
Ki (human α thrombin): 170 nM

Cc1cc(OCCNc2ccnnc2)cc(OS(=O)(=O)c2ccc(C#N)cc2)c1 [Example 11, 4-Cyanobenzenesulfonic acid-3-methyl-5-[2-(pyridazin-4-ylamino)-ethoxy]-phenyl ester]
TT5 (thrombin time as a difference to the control) (thrombin): 18 s
TT50 (thrombin time as a difference to the control) (thrombin): 81 s
Ki (human α thrombin): 200 nM

CCOC(=O)COc1cccc(S(=O)(=O)Oc2cc(C)cc(OCCNc3ccnnc3)c2)c1 [Example 13, (3-{3-Methyl-5-[2-(pyridazin-4-ylamino)-ethoxy]-phenoxy-sulfonyl}-phenoxy)-acetic acid ethyl ester]
TT5 (thrombin time as a difference to the control) (thrombin): 0 s
TT50 (thrombin time as a difference to the control) (thrombin): 49 s
Ki (human α thrombin): 90 nM

Cc1cc(NS(=O)(=O)C2CCCCC2)cc(OCCNc2ccnnc2)c1 [Example 22, N-{3-Methyl-5-[2-(pyridazin-4-ylamino)-ethoxy]-phenyl}-cyclohexanesulfonamide]
TT5 (thrombin time as a difference to the control) (thrombin): 11 s
TT50 (thrombin time as a difference to the control) (thrombin): 90 s
Ki (human α thrombin): 350 nM
